Laboratory results taken from the supplement of paper PMC12592484.

Columns and labels:
Assay in all cases: drug sensitivity score (DSS2, normalised partial AUC of dose-response, 72 h CellTiter-Glo viability) (DSS (dimensionless)); higher = more sensitive (stronger growth inhibition / cytotoxicity); extreme values may be limits of the assay
[1] = tested on: 22Rv1
How it was run: (§1)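 Five doses spanning a 10,000-fold range were pre-dispensed into 384-well plates, into which low-passage primary prostate cancer-associated fibroblasts, PF179T, WPMY-1, LNCaP and 22Rv1 cells were seeded. After 72 h, CellTiter-Glo 2.0 luminescence measured viability, scaled to vehicle and positive-control wells. Higher values of the drug sensitivity score, a BREEZE-computed partial area under the fitted logistic dose–response curve divided by the log of the upper asymptote, mean greater sensitivity.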

[2] = tested on: LNCAP
How it was run: as §1

[3] = tested on: CAF#7 (primary prostate cancer-associated fibroblasts of myCAF-like type)
How it was run: as §1

[4] = tested on: CAF#6 (primary prostate cancer-associated fibroblasts of iCAF-like type)
How it was run: as §1

[5] = tested on: CAF#3 (primary prostate cancer-associated fibroblasts of myCAF-like type)
How it was run: as §1

[6] = tested on: CAF#4 (primary prostate cancer-associated fibroblasts of iCAF-like type)
How it was run: as §1

[7] = tested on: PF179T
How it was run: as §1

[8] = tested on: CAF#5 (primary prostate cancer-associated fibroblasts of myCAF-like type)
How it was run: as §1

[9] = tested on: CAF#1 (primary prostate cancer-associated fibroblasts of myCAF-like type)
How it was run: as §1

[10] = tested on: WPMY-1
How it was run: as §1

[11] = tested on: CAF#2 (primary prostate cancer-associated fibroblasts of iCAF-like type)
How it was run: as §1

SMILES | drug sensitivity score [1] | drug sensitivity score [2] | drug sensitivity score [3] | drug sensitivity score [4] | drug sensitivity score [5] | drug sensitivity score [6] | drug sensitivity score [7] | drug sensitivity score [8] | drug sensitivity score [9] | drug sensitivity score [10] | drug sensitivity score [11]
C=CCn1c(=O)c2cnc(Nc3ccc(N4CCN(C)CC4)cc3)nc2n1-c1cccc(C(C)(C)O)n1 [Adavosertib] (tested concentration range 1-10000 nM) | 11.9 | 17 | 7.3 | 4 | 2.7 | 8.9 | 10.4 | 5.9 | 7.3 | 21.5 | 10.3
N#Cc1ccc(C(c2ccc(C#N)cc2)n2cncn2)cc1 [Letrozole] (tested concentration range 1-10000 nM) | 0 | 0 | 0 | 0 | 0 | 0 | 0 | 0 | 0 | 0 | 0
CNc1ncc2cc(-c3cc(NC(=O)NCCC(C)(C)C)c(F)cc3C)c(C)nc2n1 (tested concentration range 1-10000 nM) | 8.5 | 10.4 | 8 | 6.3 | 1.6 | 9.2 | 6.7 | 7.2 | 7.4 | 5.6 | 11
Cc1ccc(NC(=O)c2ccc(CN3CCN(C)CC3)cc2)cc1Nc1nc(-c2cccnc2)cs1 [Masitinib] (tested concentration range 1-10000 nM) | 5.3 | 4.3 | 1.9 | 1.6 | 0.6 | 7.6 | 2.4 | 3.1 | 4.1 | 5.3 | 5.3
C1=N/C2=N/c3ccc(OCCN4CCCC4)c(c3)COC/C=C/COCc3cccc(c3)C(=C1)N2 [Pacritinib] (tested concentration range 1-10000 nM) | 8.6 | 8.4 | 8.1 | 8.2 | 9.4 | 6.1 | 4.5 | 7.3 | 6.7 | 10.5 | 7.8
Nc1cc(COc2c(Cl)cc(C[C@H](N)C(=O)O)cc2Cl)c2oc(-c3ccccc3)nc2c1 [JPH203] (tested concentration range 0.5-5000 nM) | 0 | 0 | 0 | 0.1 | 0 | 0 | 0 | 1 | 0.1 | 0 | 2
NC(=O)N1CCC(CC(=O)N2CCC([C@H]3c4ncc(Br)cc4CCc4cc(Cl)cc(Br)c43)CC2)CC1 [Lonafarnib] (tested concentration range 5-50000 nM) | 18.6 | 16.1 | 7.7 | 8.5 | 9.2 | 9 | 3.1 | 7.6 | 8.2 | 16.6 | 9.7
Oc1ncnc2[nH]ncc12 [Allopurinol] (tested concentration range 1-10000 nM) | 0 | 0 | 0 | 0 | 0 | 0 | 0 | 0 | 0 | 0 | 0
Cn1nnc2c(C(N)=O)ncn2c1=O [Temozolomide] (tested concentration range 10-100000 nM) | 0 | 0 | 0 | 0 | 0 | 0 | 0 | 0 | 0 | 0 | 0
C=CC(=O)N1CCC[C@@H](n2nc(-c3ccc(Oc4ccccc4)cc3)c3c(N)ncnc32)C1 [Ibrutinib] (tested concentration range 0.1-1000 nM) | 0 | 0 | 0 | 0 | 0.2 | 0 | 0 | 0.7 | 0.1 | 0 | 0
O=C(O)c1ccc2c(c1)nc(Nc1cccc(Cl)c1)c1ccncc12 [Silmitasertib] (tested concentration range 1-10000 nM) | 6 | 3.9 | 1.5 | 0.6 | 0.7 | 2.2 | 2.5 | 4.6 | 5.4 | 5.1 | 4
CO[C@H]1C[C@@H]2CC[C@@H](C)[C@@](O)(O2)C(=O)C(=O)N2CCCC[C@H]2C(=O)O[C@H]([C@H](C)C[C@@H]2CC[C@@H](OCCO)[C@H](OC)C2)CC(=O)[C@H](C)/C=C(\C)[C@@H](O)[C@@H](OC)C(=O)[C@H](C)C[C@H](C)/C=C/C=C/C=C/1C [Everolimus] (tested concentration range 0-100 nM) | 11.6 | 14.1 | 10.8 | 8.2 | 7.2 | 6.1 | 6.3 | 9.7 | 11.5 | 5.4 | 8.2
Cc1cccc(-c2[nH]c(CNc3ccccc3F)nc2-c2ccc3ncnn3c2)n1 [TEW-7197] (tested concentration range 0.2-2500 nM) | 0 | 0 | 0 | 0 | 0.5 | 0 | 0 | 0.3 | 0.5 | 0 | 0
CCCCOc1nc(N)c2c(n1)N(Cc1cccc(CN3CCCC3)c1)CC(=O)N2 [Vesatolimod] (tested concentration range 1-10000 nM) | 0 | 0 | 0 | 0 | 0 | 0 | 0 | 0 | 0 | 0 | 0
CCOC(=O)CCNc1cc(N2CCc3ccccc3CC2)nc(-c2ccccn2)n1 [GSK-J4] (tested concentration range 10-100000 nM) | 2.1 | 3.5 | 0 | 0 | 0.6 | 3.7 | 0.3 | 0.3 | 2.1 | 0.5 | 4.3
Cc1c(Cn2c(C)nc3c(C(=O)O)cc(N4CCOCC4)cc32)cccc1C(F)(F)F (tested concentration range 1-10000 nM) | 0 | 12.4 | 5.1 | 2.1 | 6.2 | 1.3 | 2.1 | 0.1 | 2.6 | 0 | 0.4
C[C@H](Nc1ncnc2nc[nH]c12)c1cc2cccc(Cl)c2c(=O)n1-c1ccccc1 [Duvelisib] (tested concentration range 0-500 nM) | 0 | 11 | 1.9 | 1.3 | 3.4 | 1.7 | 1.7 | 2.3 | 1.1 | 0.5 | 1
Nc1cc(F)ccc1NC(=O)/C=C/c1cnn(C/C=C/c2ccccc2)c1 [RGFP966] (tested concentration range 1-10000 nM) | 1.8 | 8.3 | 2.7 | 2.1 | 2.6 | 3.3 | 3.8 | 3.1 | 3.1 | 2.2 | 3.2
CC(=O)OC[C@H]1O[C@@H]([S-])[C@H](OC(C)=O)[C@@H](OC(C)=O)[C@@H]1OC(C)=O.CCP(CC)CC.[Au+] [Auranofin] (tested concentration range 0.2-2500 nM) | 5.7 | 13.1 | 7.2 | 5.4 | 5.1 | 3.3 | 0 | 3.5 | 3.7 | 5.2 | 5
O=C1c2c(O)ccc(O)c2C(=O)c2c(NCCNCCO)ccc(NCCNCCO)c21 [Mitoxantrone] (tested concentration range 0.1-1000 nM) | 10.7 | 14.7 | 7.2 | 4 | 1.2 | 5 | 9.9 | 6.6 | 3.7 | 15 | 8.9
Cc1[nH]c2ccccc2c1CCNCc1ccc(/C=C/C(=O)NO)cc1 [Panobinostat] (tested concentration range 0.1-1000 nM) | 23.2 | 23.1 | 7.9 | 9.3 | 7.7 | 8 | 10.9 | 10.4 | 11.3 | 22.9 | 11.4
O=C(O)CC[C@H]1CC[C@@](c2cc(F)ccc2F)(S(=O)(=O)c2ccc(Cl)cc2)CC1 [MK-0752] (tested concentration range 0.1-1000 nM) | 0 | 0 | 0 | 0 | 0 | 0 | 0 | 0 | 0 | 0 | 0
O=C(Nc1cccc(Nc2ncc(Br)c(NCCc3cnc[nH]3)n2)c1)N1CCCC1 [BX-912] (tested concentration range 1-10000 nM) | 1.9 | 3.5 | 10 | 6.2 | 7.6 | 3.1 | 7.6 | 8.1 | 6.1 | 9.9 | 7.5
CC(C)Oc1ccc(C(=O)N[C@H](CNC(=O)CN(C)C)Cc2ccc(-c3cn4cccc([C@H](C)O)c4n3)cc2)cc1Cl (tested concentration range 1-10000 nM) | 10.9 | 19.1 | 2.4 | 3.2 | 2.5 | 5.5 | 9 | 3 | 1.4 | 24.5 | 9.8
